pEC50: −log10 of the molar value.
How the values were obtained:
SARS-CoV-2 = experiment: Antiviral activity against SARS-CoV-2 infected in human A549 cells assessed as reduction in viral growth incubated for 24 hrs by Nano-Glo reagent based analysis; format: functional, organism-based; details: Severe acute respiratory syndrome coronavirus 2, A549, 24 h
Influenza A virus [1] = experiment: Antiviral activity against influenza A virus H1N1 A/Puerto Rico/8/1934 infected in MDCK cells assessed as reduction in viral replication measured after 30 hrs of post-infection by RT-qPCR analysis relative to control; format: functional; set-up: scale not given: the % may be the effect or the level left
A549 [2] = experiment: Cytotoxicity against human A549 cells; format: functional
[3] = Cytotoxicity against human MRC5 cells by luminescence-based cell viability assay; format: toxicity
[4] = Inhibition of STT3A/STT3B mediated N-linked glycosylation in human H1-HeLa cells stably transduced with ERluc by measuring effective concentration of inhibition incubated for 18 hrs by One-Glo luciferase reporter assay; format: cell-based
A549 [5] = experiment: Cytotoxicity against human A549 cells by fluorescent cell imaging assay; format: functional
Influenza A virus [6] = experiment: Antiviral activity against influenza A virus H1N1 A/Puerto Rico/8/1934 infected in MDCK cells assessed as reduction in viral replication measured after 3 hrs of post-infection by RT-qPCR analysis relative to control; format: functional; set-up: scale not given: the % may be the effect or the level left
Human coronavirus 229E = experiment: Antiviral activity against Human coronavirus 229E infected in human MRC5 cells assessed as reduction in viral growth incubated for 68 hrs by CellTiter-Glo luminescence assay; format: functional, organism-based; details: MRC5, 68 h
Human respirovirus 3 = experiment: Antiviral activity against Human parainfluenza virus 3 JS infected in human A549 cells assessed as reduction in viral proliferation incubated for 44 hrs by Hoechst dye based fluorescence analysis; format: functional, organism-based; details: Human respirovirus 3, JS, A549, 44 h
[7] = Unbound clearance in human liver microsomes at 0.5 uM incubated upto 45 mins; format: ADME, Microsome; details: 0.75 h
[8] = Unbound clearance in rat liver microsomes at 0.5 uM incubated upto 45 mins; format: ADME, Microsome; details: 0.75 h
[9] = Chromatographic hydrophobicity index, logD of the compound at pH 7.4; format: physicochemical; details: buffer
[10] = Neurotoxicity in human iPSC cells co-cultured with human astrocyte assessed as inhibition of cell growth at 300 nM incubated for 48 hr by multi-electrode array analysis relative to control; format: toxicity, cell-based; details: ipsc, 48 h, 0.3 µM
[11] = MRT in Wistar Han rat at 2 mg/kg,po or 1 mg/kg,iv administrated upto 60 mins by LC-MS/MS analysis; format: ADME, organism-based; details: in vivo
[12] = Volume of distribution at steady state in Wistar Han rat at 2 mg/kg,po or 1 mg/kg,iv administrated upto 60 mins by LC-MS/MS analysis; format: ADME, organism-based; details: in vivo, 1 h
[13] = Bioavailability in Wistar Han rat at 2 mg/kg,po or 1 mg/kg,iv administrated upto 60 mins by LC-MS/MS analysis; format: ADME, organism-based; details: in vivo
[14] = Unbound clearance in Wistar Han rat at 2 mg/kg,po or 1 mg/kg,iv administrated upto 60 mins by LC-MS/MS analysis; format: ADME, organism-based; details: in vivo, 1 h
[15] = Solubility of compound in FaSSIF; format: ADME
[16] = Cytotoxicity against human Hepatocyte cultured as 3D spheroids incubated for 14 days by CellTiter-Glo luminescence assay; format: toxicity, cell-based; details: hepatocytes cultured as 3D spheroids

Cc1ccc2cc(-c3cc(S(=O)(=O)N(C)CC(=O)N4CCOCC4)ccc3N3CCCC3)[nH]c2c1 showed a pEC50 (SARS-CoV-2) of 8.40, an Activity (Influenza A virus [1]) of 60% and a CC50 (A549 [2]) of 13 nM. For the same compound, the CC50 [3] was 44 nM, the pEC50 [4] was 8.70 and the CC50 (A549 [5]) was 35 nM. It also gave an Activity (Influenza A virus [6]) greater than 90%, a pEC50 (Human coronavirus 229E) of 8.70 and a pEC50 (Human respirovirus 3) of 8.22.

In the case of O=C([C@@H]1CCN1S(=O)(=O)c1ccc(N2CC[C@@H](O)C2)c(-c2cc3ccccc3[nH]2)c1)N1CCOCC1, the CL free [7] was 904 mL/min/kg, the pEC50 (SARS-CoV-2) was 8.40 and the CC50 (A549 [2]) was 2000 nM. It also gave a CC50 [3] of 926 nM, a pEC50 [4] of 8.30 and a CC50 (A549 [5]) of 1950 nM. For the same compound, the CL free [8] was 1998 mL/min/kg, the pEC50 (Human coronavirus 229E) was 8.15 and the pEC50 (Human respirovirus 3) was 7.24. It also gave a chromatographic logD [9] of 3.5.

For CCCC(C)C1(CC)C(=O)NC(=O)NC1=O (stereo unspecified) [PENTOBARBITAL], the Activity [10] was “Non-Toxic”.

CN(C)S(=O)(=O)c1ccc(N2CCCC2)c(-c2cc3ccncc3[nH]2)c1 gave a pEC50 [4] of 6.40.

In the case of CN(C)S(=O)(=O)c1ccc(N2CCCC2)c(C(=O)Nc2ccc(F)cc2)c1, the pEC50 [4] was 5.86.

In the case of CN(C)S(=O)(=O)c1cnc(N2CCCC2)c(-c2cc3ccccc3[nH]2)c1, the pEC50 [4] was 6.11.

Work on CN(C)S(=O)(=O)c1ccc(N2CCC2)c(-c2cc3ccccc3[nH]2)c1 yielded a CL free [7] of 117 mL/min/kg, a pEC50 [4] of 7.51 and a CL free [8] of 7395 mL/min/kg. It also gave a chromatographic logD [9] of 6.5.

CN(C)S(=O)(=O)c1ccc(N2CCCC2)c(-c2cc3cccnc3[nH]2)c1 showed a pEC50 [4] of 6.39.

With CN(C)S(=O)(=O)c1ccc(N2CCC(F)(F)C2)c(-c2cc3ccccc3[nH]2)c1 the CL free [7] was 526 mL/min/kg, the pEC50 [4] was 6.97 and the CL free [8] was 27713 mL/min/kg. The chromatographic logD [9] was 6.6.

In the case of CN(C)S(=O)(=O)c1ccc(N2CCCC2)c(-c2nc3ccccc3[nH]2)c1, the pEC50 [4] was 5.35.

For Cc1cnc(NC(=O)c2cc(S(=O)(=O)N(C)C)ccc2N2CCCC2)s1, the MRT [11] was 18 min, the Vdss [12] was 1.9 L/kg and the pEC50 (SARS-CoV-2) was 5.87. The pEC50 [4] was 6.23, the bioavailability [13] was 0.6% and the CL free [14] was ~ 10000 ml/min.kg. For the same compound, the CL free [8] was ~ 2000 ml/min.kg, the pEC50 (Human coronavirus 229E) was 5.87 and the pEC50 (Human respirovirus 3) was 6.42. It also gave a solubility [15] of less than 1 µg/mL, a chromatographic logD [9] of 4.9 and an IC50 at 14 days [16] of 20000 nM.

Compound CN(C)S(=O)(=O)c1ccc(N2CCCC2)c(-c2cc3cc(F)ccc3[nH]2)c1 has a pEC50 [4] of 6.76.

Source: ChEMBL document CHEMBL5576149, “Discovery of Potent STT3A/B Inhibitors and Assessment of Their Multipathogen Antiviral Potential and Safety” (J Med Chem, 2024)
